Data as given in patent US20140193370A1, “METHODS AND COMPOSITIONS FOR PROMOTING LEAN BODY MASS GROWTH” (NESTEC SA, priority 2011, published 2014).

Test system: adult dogs
Assay: Chronic oral OEA in the diet of dogs fed 25% more than MER; body weight gain and body composition by DEXA
Type: in vivo, dog
Excerpt: The physiological effects of regular oral OEA administration were investigated. OEA was provided as a supplement to dogs for […] to study the effect on body weight gain and body composition. Eighteen adult dogs participated in the study. Males with less than 17.5% body fat and females with less than 20% body fat were selected. Based on maintenance energy requirements (MER,) body weight and percentage of body fat, the dogs were randomly assigned into two groups. The control group (N=9) received a standard dry adult dog food (control diet without any OEA). The test group (N=9) received a selected dose of OEA incorporated into the standard diet. The dogs were fed 25% more than their MER for eight months. During the first four months, they received their ration in one meal per day. From month four to eight, they received their ration equally divided in two meals per day. Body weight was recorded weekly and dual X-ray absorptiometry (DEXA) scans were performed at baseline and every two months. Food intake was recorded daily. There was no difference in food consumption between groups (i.e., similar caloric intake).

SMILES: CCCCCCCC/C=C\CCCCCCCC(=O)NCCO [OEA, oleoylethanolamide]
- Lean Gain (g/kg body weight gain) (chronic oral OEA in diet, dogs, eight months, control diet 139): 170 g/kg body weight gain
- Fat Gain (g/kg body weight gain) (chronic oral OEA in diet, dogs, eight months, control diet 1333): 853 g/kg body weight gain
- more lean body mass gained per kilogram of body weight gain than dogs fed the control diet (eight month study, OEA containing diet vs control diet): 22%
- more fat gained per kilogram of body weight gain by dogs fed the control diet than by dogs fed the OEA containing diet (eight month study, control diet vs OEA containing diet): 56%
- body fat (end of eight month study, dogs fed 25% more than MER, OEA incorporated into standard diet, control diet 16.0%): 14.8%
- gain in lean body mass (end of eight month study, dogs fed 25% more than MER, OEA incorporated into standard diet, control diet 236.9 g): 446.7 g
- food consumption (caloric intake) vs control group (food intake recorded daily, OEA diet group vs control diet group): no difference
